Assay results as given in PubChem BioAssay (NCI).
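Exposure lasted 48 hours, with cells grown in 96-well plates and compounds tested at five concentrations. GI50 marks 50% less growth. TGI denotes the concentration required for complete inhibition of growth.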

Columns and labels:
Assay in all cases: NCI tumour cell line growth inhibition, 48 h
[1] = system: 786-0 renal
[2] = system: OVCAR-3 ovarian
[3] = system: MALME-3M melanoma
[4] = system: SK-MEL-2 melanoma
[5] = system: CCRF-CEM leukemia
[6] = system: ACHN renal
[7] = system: SF-295 CNS
[8] = system: SR leukemia
[9] = system: EKVX NSCLC
[10] = system: MDA-MB-231 breast
[11] = system: HS 578T breast
[12] = system: SNB-75 CNS
[13] = system: LOX IMVI melanoma
[14] = system: OVCAR-8 ovarian
[15] = system: RXF 393 renal
[16] = system: HT29 colon
[17] = system: U251 CNS
[18] = system: NCI-H460 lung
[19] = system: CAKI-1 renal
[20] = system: DU-145 prostate
[21] = system: UACC-62 melanoma
[22] = system: M14 melanoma
[23] = system: SNB-19 CNS
[24] = system: MOLT-4 leukemia
[25] = system: SF-539 CNS
[26] = system: SK-OV-3 ovarian
[27] = system: BT-549 breast
[28] = system: MCF7 breast
[29] = system: NCI-H522 lung
[30] = system: SF-268 CNS
[31] = system: RPMI-8226 leukemia
[32] = system: IGROV1 ovarian
[33] = system: SN12C renal
[34] = system: OVCAR-4 ovarian
[35] = system: NCI-H226 lung
[36] = system: HCC-2998 colon
[37] = system: TK-10 renal
[38] = system: COLO 205 colon
[39] = system: SK-MEL-5 melanoma
[40] = system: SK-MEL-28 melanoma
[41] = system: A498 renal
[42] = system: UO-31 renal
[43] = system: T-47D breast
[44] = system: HOP-62 NSCLC
[45] = system: OVCAR-5 ovarian
[46] = system: MDA-MB-468 breast
[47] = system: A549 NSCLC
[48] = system: PC-3 prostate
[49] = system: HL-60(TB) leukemia
[50] = system: HOP-92 NSCLC
[51] = system: K-562 leukemia
[52] = system: HCT-116 colon
[53] = system: KM12 colon
[54] = system: SW-620 colon
[55] = system: NCI-H23 lung
[56] = system: HCT-15 colon

For `O=C(Nc1cccc(-c2cn(-c3ccc4oc(=O)ccc4c3)nn2)c1)Nc1cc(C(F)(F)F)cc(C(F)(F)F)c1`, the GI50 [1] was 12.6 µM, the TGI [1] was 68.1 µM and the GI50 [2] was 3.31 µM. It also gave a TGI [2] greater than 100 µM, a GI50 [3] of 28.2 µM and a TGI [3] greater than 100 µM. For the same compound, the GI50 [4] was 5.55 µM, the TGI [4] was 25.7 µM and the GI50 [5] was 3.31 µM. The TGI [5] was greater than 100 µM, the GI50 [6] was 6.86 µM and the TGI [6] was 90.2 µM. For the same compound, the GI50 [7] was 3.31 µM, the TGI [7] was greater than 100 µM and the GI50 [8] was 5.63 µM. It also gave a TGI [8] greater than 100 µM, a GI50 [9] of 5.04 µM and a TGI [9] greater than 100 µM. For the same compound, the GI50 [10] was 18.2 µM, the TGI [10] was greater than 100 µM and the GI50 [11] was 5.16 µM. The TGI [11] was greater than 100 µM, the GI50 [12] was 10.2 µM and the TGI [12] was 45.1 µM. It also gave a GI50 [13] of 7.55 µM, a TGI [13] greater than 100 µM and a GI50 [14] of 5.73 µM. For the same compound, the TGI [14] was greater than 100 µM, the GI50 [15] was 2.44 µM and the TGI [15] was 8.47 µM. The GI50 [16] was greater than 100 µM, the TGI [16] was greater than 100 µM and the GI50 [17] was 4.69 µM. For the same compound, the TGI [17] was greater than 100 µM, the GI50 [18] was 4.81 µM and the TGI [18] was greater than 100 µM. For the same compound, the GI50 [19] was 6.3 µM, the TGI [19] was greater than 100 µM and the GI50 [20] was 8.09 µM. For the same compound, the TGI [20] was greater than 100 µM, the GI50 [21] was 6.8 µM and the TGI [21] was greater than 100 µM. It also gave a GI50 [22] greater than 100 µM, a TGI [22] greater than 100 µM and a GI50 [23] of 10.1 µM. For the same compound, the TGI [23] was 89.8 µM, the GI50 [24] was 3.82 µM and the TGI [24] was greater than 100 µM. For the same compound, the GI50 [25] was 15.1 µM, the TGI [25] was greater than 100 µM and the GI50 [26] was 18.6 µM. It also gave a TGI [26] greater than 100 µM, a GI50 [27] of 7.19 µM and a TGI [27] greater than 100 µM. It also gave a GI50 [28] of 4.41 µM, a TGI [28] greater than 100 µM and a GI50 [29] of 4.39 µM. For the same compound, the TGI [29] was greater than 100 µM, the GI50 [30] was 21.3 µM and the TGI [30] was greater than 100 µM. The GI50 [31] was 2.88 µM, the TGI [31] was greater than 100 µM and the GI50 [32] was 8.87 µM. It also gave a TGI [32] greater than 100 µM, a GI50 [33] of 6.31 µM and a TGI [33] greater than 100 µM. The GI50 [34] was 3.42 µM, the TGI [34] was greater than 100 µM and the GI50 [35] was 5.57 µM. It also gave a TGI [35] greater than 100 µM, a GI50 [36] of 8.14 µM and a TGI [36] greater than 100 µM. It also gave a GI50 [37] of 13.4 µM, a TGI [37] of 56.9 µM and a GI50 [38] greater than 100 µM. The TGI [38] was greater than 100 µM, the GI50 [39] was 4.18 µM and the TGI [39] was greater than 100 µM. It also gave a GI50 [40] greater than 100 µM, a TGI [40] greater than 100 µM and a GI50 [41] of 20.7 µM. It also gave a TGI [41] greater than 100 µM, a GI50 [42] of 6.34 µM and a TGI [42] greater than 100 µM. It also gave a GI50 [43] of 3.14 µM, a TGI [43] greater than 100 µM and a GI50 [44] of 8.08 µM. The TGI [44] was 66.9 µM, the GI50 [45] was greater than 100 µM and the TGI [45] was greater than 100 µM. It also gave a GI50 [46] of 2.43 µM, a TGI [46] of 8.69 µM and a GI50 [47] of 5.1 µM. The TGI [47] was greater than 100 µM, the GI50 [48] was 4.07 µM and the TGI [48] was greater than 100 µM. For the same compound, the GI50 [49] was 6.5 µM, the TGI [49] was greater than 100 µM and the GI50 [50] was 3.66 µM. For the same compound, the TGI [50] was 31.3 µM, the GI50 [51] was 3.25 µM and the TGI [51] was greater than 100 µM. It also gave a GI50 [52] of 7.17 µM, a TGI [52] greater than 100 µM and a GI50 [53] of 5.2 µM. For the same compound, the TGI [53] was greater than 100 µM, the GI50 [54] was 55.5 µM and the TGI [54] was greater than 100 µM. It also gave a GI50 [55] of 3.34 µM, a TGI [55] greater than 100 µM and a GI50 [56] of 5.15 µM. The TGI [56] was greater than 100 µM.
